pIC50: −log10 of the molar value. “Also recorded” adds a separate entry of the source.
Tests used:
[1] = system: ldlA7 cells; assay: DiI-HDL uptake assay in the absence of SR-BI (ldlA7 counterscreen); type: cell-based, Chinese hamster; details: Cricetulus griseus; parental cells not overexpressing SR-BI
Experimental: DiI-HDL Uptake Assay in the Absence of SR-BI (SA 7: AID No. 588825)
In the primary assay, the cell line used to measure DiI-HDL uptake lacks the LDL receptor and overexpresses SR-BI. […] As in the primary assay, 10 μg protein/ml of DiI-HDL was used to measure DiI uptake into the cells after 3 hours of incubation with different concentrations of compound.

[2] = system: endocytosis of transferrin; assay: Transferrin endocytosis assay; type: cell-based, Chinese hamster; details: concentrations up to 35 μM
Source text: Transferrin Endocytosis Assay (SA 3: AID No. 602134)
This assay measures the endocytosis of an independent ligand, transferrin, which is not taken up via SR-BI but by clathrin-mediated endocytosis; thus providing a measure of the selectivity of the inhibitors. Alexa-594-labeled transferrin is taken into the cell via endocytosis and localization of labeled transferrin can be quantitated in the various intracellular compartments. […] Inhibitors of interest should act selectively at SR-BI and should have no activity in this assay.
Cells were pre-treated with compound for 3 hours and then treated with the Alexa-594 transferrin reagent for 30 minutes (Catalog No. T-13343; Invitrogen) in serum-free media. Plates of cells were then placed onto ice, washed with ice cold PBS, and then fixed with 4% paraformaldehyde. In addition, the nuclei were stained with 300 nM 4′,6-diamidino-2-phenylindole (DAPI) (Catalog No. 21490; Invitrogen). The cells were imaged with the Molecular Devices IXM microscope. Translocation measurements were performed using MetaExpress software and normalized for cell number.

[3] = target: T1, purified SR-BI (mSR-BI-t1) (Mus musculus, UniProt Q61009); assay: Lipid transport assay in liposomes; type: biochemical, murine; details: [3H]CE uptake into SR-BI liposomes
T1 construct: made in house; host or cells: HEK293S GnTI-defective cells, tetracycline-inducible promoter
T1 sequence (Q61009 1-509): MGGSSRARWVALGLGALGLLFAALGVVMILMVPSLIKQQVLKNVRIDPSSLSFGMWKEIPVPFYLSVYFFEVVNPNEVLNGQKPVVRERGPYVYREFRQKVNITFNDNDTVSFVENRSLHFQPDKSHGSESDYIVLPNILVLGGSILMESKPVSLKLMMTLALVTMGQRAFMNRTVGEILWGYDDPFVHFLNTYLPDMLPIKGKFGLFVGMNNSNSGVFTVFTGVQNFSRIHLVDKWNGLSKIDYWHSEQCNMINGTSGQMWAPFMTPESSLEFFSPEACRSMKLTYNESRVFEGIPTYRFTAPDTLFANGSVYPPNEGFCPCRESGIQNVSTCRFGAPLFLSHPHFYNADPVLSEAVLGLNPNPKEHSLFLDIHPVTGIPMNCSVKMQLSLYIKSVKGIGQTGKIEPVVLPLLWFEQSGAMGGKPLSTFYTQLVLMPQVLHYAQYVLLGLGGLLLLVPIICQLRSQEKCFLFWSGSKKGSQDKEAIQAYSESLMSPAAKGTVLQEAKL
Source text: This assay provides confirmation of activity via SR-BI by measuring the uptake of [^3H]cholesteryl ester ([^3H]CE) into liposomes loaded with purified SR-BI. For the purification of C-terminally epitope-tagged murine SR-BI (mSR-BI-t1) with uniform, truncated N-linked oligosaccharide chains, we overexpressed mSR-BI-t1 in HEK293S cells. The mSR-BI-t1 was expressed in an N-acetylglucosaminyltransferase I (GnTI)-defective HEK293S derivative, HEK293S GnTI (2), which generates a glycoprotein with uniform, truncated N-linked oligosaccharide chains under the control of a tetracycline-inducible promoter. mSR-BI-t1 was immunoaffinity purified to virtual homogeneity, and the detergent-solubilized receptor was reconstituted into liposomes. Subsequently, the in vitro SR-BI-mediated selective uptake of [^3H]CE from [^3H]CE-HDL in the reconstituted liposomes was measured. […] Briefly, 20 μg of SR-BI (or an equivalent volume of protein-free buffer to generate control liposomes that are devoid of SR-BI) was reconstituted into liposomes by acetone precipitation. […] Incubation was continued for 4 hours at 37° C., and then selective uptake of [^3H]CE into liposomes was determined using the previously described filter binding assays (15). SR-BI-selective uptake values were determined.

[4] = Stability in PBS; type: physicochemical; details: 1% DMSO, over 48 hours
Experimental: (§1) We noticed that the concentration of the probe fluctuated through the course of the assay (data not shown). We believe that this fluctuation is due to the low kinetic solubility of the probe. Thus, we decided to determine the amount of undissolved probe present in the well after it was treated with PBS for a given length of time, relative to the amount of undissolved probe at the start of the assay. The wells were centrifuged and the supernatant was removed after various time points, then acetonitrile was added to dissolve the remaining solid in the wells, and the amount of probe was quantified. […] The stability of the probe was confirmed by measuring stability in human plasma, with >99% remaining after a 5-hour incubation period. […] FIG. 5 summarizes known properties of the probe.

[5] = Stability in human plasma; type: in vitro ADME; details: 5-hour incubation
Experimental: as §1

[6] = Plasma protein binding; type: in vitro ADME; details: human plasma; read-out: plasma protein binding (PPB), bound (converted)
[7] = Stability to GSH; type: physicochemical
Source text: Probe 2 (ML279) can potentially act as an electrophile under biological conditions, with its tetrazole alpha to the western amide.

[8] = target: T2, SR-BI (Mus musculus, UniProt Q61009); assay: Radioactive HDL uptake assay (wild type SR-BI); type: cell-based, murine; parameters: expressed in transfected cells; host or cells: ldlA[mSR-BI], Chinese hamster ovary (CHO) cells lacking LDL receptor (Krieger Laboratory); details: [3H]cholesteryl ester HDL; read-out: IC50 in nonfluorescent, radiolabeled version of the uptake assay
T2 sequence (Q61009 1-509): T1 sequence (Q61009 1-509)
Source text: Radioactive HDL Uptake Assay (Wild Type SR-BI) (SA 8: AID No. 588836)
The goal of this assay was to verify compounds that disrupt the lipid uptake from HDL particles to SR-BI scavenger receptor-expressing cells using an alternative means of labeling HDL-particles and avoiding any type of fluorescence measurement. To measure this binding event, HDL particles are labeled with [^3H]cholesteryl ester and added to mSR-BI expressing cells. Cells take up the radioactive lipids from HDL via SR-BI in 2 to 3 hours. After significant uptake of the lipids from HDL, the radiolabel can be detected by liquid scintillation counting. The level of radioactivity correlates with the amount of HDL lipid uptake. The uptake of lipid from the HDL particles can be inhibited by the compound BLT-1 or when co-treated with an excess of unlabeled HDL. The mSR-BI expressing cells utilized in the assay are a Chinese hamster ovary (CHO) cell line lacking expression of the LDL receptors and overexpressing the scavenger receptor, SR-BI. Inhibitors of SR-BI and HDL lipid uptake will have a reduction in liquid scintillation counts.

C[C@H](C(=O)NC1CCCC1)N(C(=O)Cn1nnc(-c2ccc3c(c2)OCO3)n1)C1CCCCC1 [ML279, (R)-2-(2-(5-(Benzo[d][1,3]dioxol-5-yl)-2H-tetrazol-2-yl)-N-cyclohexylacetamido)-N-cyclopentylpropanamide]
pIC50 [1]: < 4.46 | endocytosis of transferrin (in words) [2]: does not inhibit endocytosis of transferrin; also recorded: not grossly perturbing cellular membrane trafficking pathways; also recorded: no effect on the endocytosis of transferrin | endocytosis of transferrin (in words) ([2]; listed as compound of Formula (II)): does not inhibit endocytosis of transferrin | interaction with SR-BI in purified liposomes (in words) [3]: direct interaction between the probe and SR-BI | stability in PBS (in words) [4]: stable to PBS | stability in human plasma, remaining [5]: > 99% | fraction unbound [6]: 0.235 | stability to GSH (in words) [7]: stable to GSH | pIC50 [8]: 6.00

Source: patent US9884851B2, “Heterocycle-bisamide inhibitors of scavenger receptor BI” (THE BROAD INSTITUTE, INC., priority 2012, dated 2018)
